In patent publication US10464941B2, “Therapeutic compounds” (REGENTS OF THE UNIVERSITY OF MINNESOTA, priority 2015, dated 2019):
Marks after values point to notes of the source that are not given here.

Columns and labels:
LPS-pretreated mice = assay: animal or person; conditions: for LPS pretreated i.c.v./i.t. ratio / LPS pretreated ED50 (CI) i.t. / LPS pretreated ED50 (CI) i.c.v.: LPS 1 mg/kg 24 hours i.p.; for LPS pretreated ED50 (CI) i.t. / LPS pretreated ED50 (CI) i.c.v.: tail flick; for percent maximal possible effect at highest dose measured: 1000 pmol/mouse; for Relative Potency relative to a mixture of monovalent mu agonist (4) and CCR5 antagonist (2): mouse, in vivo; for ED50 values (95% CI) LPS (thermal): LPS thermal hyperalgesia model
Protocol: Male ICR-CD1 mice (17-25 g; Harlan, Madison, Wis.), C3H mice (15-20 g, National Cancer Institute, Bethesda, Md.) or TLR4 knock-out mice (gift from Dr. Sabita Roy) were housed, 4 to a small box in a temperature- and humidity-controlled environment with unlimited access to food and water. They were maintained on a 12 h light/dark cycle. All experiments were approved by the Institutional Animal Care and Use Committee of the University of Minnesota (Minneapolis, Minn.).
The tail flick assay is used to test for antinociception described by D'Amour and Smith^64 and modified by Dewey et. al.^65 Mice are held gently in one hand with the tail positioned in the apparatus (Tail Flick Analgesia Meter, Columbus Instruments, Columbus, Ohio) for radiant heat stimulus. The tail-flick response is elicited by applying radiant heat to the dorsal side of the tail. The test latency is measured before drug treatment (control) and again after the drug treatment (test) at the peak time of the compound, a 10 s maximum cut-off time is used to prevent damage to the tail. Antinociception is quantified according to the method of Harris and Pierson^66 as the percent maximal possible effect (% MPE) which is calculated as: % MPE=(Test−Control/10−Control)×100
A minimum of three groups of eight to ten mice are used for each dose response curve, and each mouse is used only once.
The compounds were tested for acute tolerance by comparing the ED80-90 dose measured on day 1 to the same dose administered and retested 24 hours later on the same mouse.
Compounds were dissolved in 5% DMSO and diluted to less than 1% DMSO for injection. These compounds were administered in a volume of 5-μl either i.c.v (Haley and McCormick) or intrathecal (i.t.) as described for mice by Hylden and Wilcox^67 in conscious mice. […] Time course studies, including the times 5, 10, 20, 30 and 60 minutes were used to determine the peak antinociception.
Pain is a hallmark of many inflammatory conditions. […] Antinociception was evaluated using the radiant heat-induced tailflick assay. Morphine was employed as a standard opioid agonist under these conditions.

control mice = assay: Radiant heat tail-flick antinociception, control (LPS-untreated) mice; format: in vivo; conditions: control mice; for CONTROLS ED50 (CI) i.t. / CONTROLS ED50 (CI) i.c.v.: tail flick
From the text: Pain is a hallmark of many inflammatory conditions.

[1] = tested on: CFA-induced mechanical hyperalgesia mouse model; assay: Complete Freund's Adjuvant (CFA) mechanical hyperalgesia, electronic von Frey; format: in vivo, mice; conditions: i.t.
Protocol: Before injection of CFA baseline withdrawal thresholds (g) were obtained from a mechanical stimulation using an electronic von Frey anesthesiometer (IITC Life Sciences, Woodland Hills, USA) by applying an accurate force on both left and right hind paw. (2,3) The left hindpaws were then injected (intraplantar) with a 50% solution of CFA (10 μg, Sigma-Aldrich) in water while the mice are under isoflurane anesthesia (10). Twenty-four hours later the withdrawal threshold (g) was again measured prior to and after the test compound i.t. at 10, 20, 30 and 60 minutes to determine the peak time and subsequent ED50. % MPE was calculated ((Time-point withdrawal threshold with drug−CFA withdrawal threshold)/(Day 0 withdrawal threshold−CFA withdrawal threshold))*100 (Wade, C. L., et al., PLoS One 2013, 8, e79239/1-e79239/11, 11 pp; Martinov, T., et al., J Vis Exp 2013, e51212; Sorge, R. E., et al., J. Neurosci. 2011, 31, 15450-15454).

Structure (SMILES)	LPS pretreated i.c.v./i.t. ratio (LPS-pretreated mice)	LPS pretreated ED50 (CI) i.t. (LPS-pretreated mice; i.t.) [pmol/mouse]	percent maximal possible effect at highest dose measured (LPS-pretreated mice; LPS pretreated, i.c.v.) [%]	% MPE still present 24 hours later (LPS-pretreated mice; LPS pretreated, i.t., 24 hours later) [% MPE]	Relative Potency relative to a mixture of monovalent mu agonist (4) and CCR5 antagonist (2) (LPS-pretreated mice)	CONTROLS i.c.v./i.t. ratio (control mice)	percent maximal possible effect at highest dose measured (control mice; i.c.v., 1000 pmol/mouse)	CONTROLS ED50 (CI) i.t. (control mice; i.t.) [pmol/mouse]	ED50 values (95% CI) CFA (mechanical) [1] [pmol/mouse]	ED50 values (95% CI) LPS (thermal) (LPS-pretreated mice; i.t.) [pmol/mouse]	percent maximal possible effect at highest dose measured (LPS-pretreated mice; LPS pretreated, i.t.) [%]	CONTROLS ED50 (CI) i.c.v. (control mice; i.c.v.) [pmol/mouse]	percent maximal possible effect at highest dose measured (control mice; i.t., 500 pmol/mouse) [%]	LPS pretreated ED50 (CI) i.c.v. (LPS-pretreated mice; i.c.v.) [pmol/mouse]	percent maximal possible effect at highest dose measured (control mice; i.c.v., 250 pmol/mouse) [%]	acute tolerance (ED80 retested 24 hours later) (control mice; i.t.)	tolerance upon repeated administration (LPS-pretreated mice; i.t., LPS-pretreated mice)	acute tolerance (ED80 retested 24 hours later) (control mice; i.c.v.)	percent maximal possible effect at highest dose measured (control mice; i.t., 1000 pmol/mouse) [%]
Cc1ccc(N(CCCN2CCC(Cc3ccc(C(N)=O)cc3)CC2)C(=O)C2CCN(C(=O)COCC(=O)NCCCCCCCCCNC(=O)COCC(=O)N[C@H]3CC[C@@]4(O)C5Cc6ccc(O)c7c6[C@@]4(CCN5C)[C@H]3O7)CC2)cc1Cl [Compound 3d, N-(3-(4-(4-carbamoylbenzyl)piperidin-1-yl)propyl)-N-(3-chloro-4-methylphenyl)-1-(21-(((4aS,7S,7aR,12bS)-4a,9-dihydroxy-3-methyl-2,3,4,4a,5,6,7,7a-octahydro-1H-4,12-methanobenzofuro[3,2-e]isoquinolin-7-yl)amino)-5,17,21-trioxo-3,19-dioxa-6,16-diazahenicosan-1-oyl)piperidine-4-carboxamide]	118.62	8.43	63.1 ± 45.2	24	6.2	63.98	54.5 ± 14.5^ %	15.83											
Cc1ccc(N(CCCN2CCC(Cc3ccc(C(N)=O)cc3)CC2)C(=O)C2CCN(C(=O)COCC(=O)NCCCCCCCCCCCCNC(=O)COCC(=O)N[C@H]3CC[C@@]4(O)C5Cc6ccc(O)c7c6[C@@]4(CCN5C)[C@H]3O7)CC2)cc1Cl [Compound 3f, N-(3-(4-(4-carbamoylbenzyl)piperidin-1-yl)propyl)-N-(3-chloro-4-methylphenyl)-1-(24-(((4aS,7S,7aR,12bS)-4a,9-dihydroxy-3-methyl-2,3,4,4a,5,6,7,7a-octahydro-1H-4,12-methanobenzofuro[3,2-e]isoquinolin-7-yl)amino)-5,20,24-trioxo-3,22-dioxa-6,19-diazatetracosan-1-oyl)piperidine-4-carboxamide]	8.15^d	122.70	55.7 ± 11.2		0.4	~2.97	27.6 ± 9.1%	336.9	58	123									
CNC(=O)COCC(=O)NCCCCCCCNC(=O)COCC(=O)N1CCC(C(=O)N(CCCN2CCC(Cc3ccc(C(N)=O)cc3)CC2)c2ccc(C)c(Cl)c2)CC1 [Compound 5, N-(3-(4-(4-carbamoylbenzyl)piperidin-1-yl)propyl)-N-(3-chloro-4-methylphenyl)-1-(3,7,17-trioxo-5,19-dioxa-2,8,16-triazahenicosan-21-oyl)piperidine-4-carboxamide]			51.9 ± 12.3								32.4 ± 12.5	505	28.1 ± 11.3						
Cc1ccc(N(CCCN2CCC(Cc3ccc(C(N)=O)cc3)CC2)C(=O)C2CCN(C(=O)COCC(=O)NCCCCCCCNC(=O)COCC(=O)N[C@H]3CC[C@@]4(O)C5Cc6ccc(O)c7c6[C@@]4(CCN5C)[C@H]3O7)CC2)cc1Cl [Compound 3c, N-(3-(4-(4-carbamoylbenzyl)piperidin-1-yl)propyl)-N-(3-chloro-4-methylphenyl)-1-(19-(((4aS,7S,7aR,12bS)-4a,9-dihydroxy-3-methyl-2,3,4,4a,5,6,7,7a-octahydro-1H-4,12-methanobenzofuro[3,2-e]isoquinolin-7-yl)amino)-5,15,19-trioxo-3,17-dioxa-6,14-diazanonadecan-1-oyl)piperidine-4-carboxamide]	60.7	11.4			4.6			166						692	35.9 ± 9.0	(54.6-507)^c			
CNC(=O)COCC(=O)NCCCCCCCNC(=O)COCC(=O)N[C@H]1CC[C@@]2(O)C3Cc4ccc(O)c5c4[C@@]2(CCN3C)[C@H]1O5 [Compound 4, reference compound]	7.93	21.3				0.95		113	27	21		108		169		(86.5-148)^c	exhibited tolerance	(83.1-141)^c	
Cc1ccc(N(CCCN2CCC(Cc3ccc(C(N)=O)cc3)CC2)C(=O)C2CCN(C(=O)COCC(=O)NCCCCCNC(=O)COCC(=O)N[C@H]3CC[C@@]4(O)C5Cc6ccc(O)c7c6[C@@]4(CCN5C)[C@H]3O7)CC2)cc1Cl [Compound 3b, N-(3-(4-(4-carbamoylbenzyl)piperidin-1-yl)propyl)-N-(3-chloro-4-methylphenyl)-1-(17-(((4aS,7S,7aR,12bS)-4a,9-dihydroxy-3-methyl-2,3,4,4a,5,6,7,7a-octahydro-1H-4,12-methanobenzofuro[3,2-e]isoquinolin-7-yl)amino)-5,13,17-trioxo-3,15-dioxa-6,12-diazaheptadecan-1-oyl)piperidine-4-carboxamide]	6.38	10.9			4.8	3.14		371				358		187		(253-543)^c		(166-72.2)^c	
CC(=O)N1CCC(C(=O)N(CCCN2CCC(Cc3ccc(C(N)=O)cc3)CC2)c2ccc(C)c(Cl)c2)CC1 [Compound 2, TAK-220, reference compound]		740	7.6 ± 1.5			1	26.2 ± 5.9%												34.2 ± 10.8
Cc1ccc(N(CCCN2CCC(Cc3ccc(C(N)=O)cc3)CC2)C(=O)C2CCN(C(=O)COCC(=O)NCCNC(=O)COCC(=O)N[C@H]3CC[C@@]4(O)C5Cc6ccc(O)c7c6[C@@]4(CCN5C)[C@H]3O7)CC2)cc1Cl [Compound 3a, N-(3-(4-(4-carbamoylbenzyl)piperidin-1-yl)propyl)-N-(3-chloro-4-methylphenyl)-1-(14-(((4aS,7S,7aR,12bS)-4a,9-dihydroxy-3-methyl-2,3,4,4a,5,6,7,7a-octahydro-1H-4,12-methanobenzofuro[3,2-e]isoquinolin-7-yl)amino)-5,10,14-trioxo-3,12-dioxa-6,9-diazatetradecan-1-oyl)piperidine-4-carboxamide]	5.32	10.6			4.9	3.29		32.3	3	11		107		56.41		(27.3-38.4)^b		(78.2-145)^c	
